Measured values taken from patent publication US20100140166A1, “PROCESS FOR FERMENTIVE PREPARATION OF ALCOHOLS AND RECOVERY OF PRODUCT” (E.I. DU PONT DE NEMOURS AND COMPANY, priority 2008, published 2010).

Experiments:
[1] = Extraction of isobutanol from an aqueous solution by ionic liquid (HPLC); format: physicochemical; details: 3 mL aqueous solution about 31 g/L isobutanol, 5 vol % ionic liquid, overnight equilibration, control 436
Method: (§1) Ethanol and isobutanol concentration in the solution was measured using HPLC as described above following thorough mixing and overnight equilibration of the contents of the vial.

[2] = system: Saccharomyces cerevisiae (W1362 20A); assay: Glucose Uptake Index (GUI) of Saccharomyces cerevisiae culture in the presence of ionic liquid; format: cell-based; details: 5% (v/v) ionic liquid, YPD medium, 30° C., 16 hours after addition; GUI of control without ionic liquid 79.0 (Ex. 1-5) or 100 (Ex. 6-8)
[3] = Extraction of ethanol from an aqueous solution by ionic liquid (HPLC); format: physicochemical; details: 3 mL aqueous solution about 31 g/L ethanol, 5 vol % ionic liquid, overnight equilibration, control 655
Method: as §1

| SMILES | mM isobutanol (in solution after equilibration) [1] [mM] | GUI of Sample (Glucose Utilization Index in the presence of ionic liquid phase) [2] | mM Ethanol (in solution after equilibration) [3] [mM] | mM isobutanol (in solution after equilibration) ([1]; listed as [MeDMEEAP] [Tf2N]) [mM] | mM Ethanol (in solution after equilibration) ([3]; listed as [MeDMEEAP] [Tf2N]) [mM] | mM isobutanol (in solution after equilibration) ([1]; listed as [MeDMEEAP] [HFPS]) [mM] | mM Ethanol (in solution after equilibration) ([3]; listed as [MeDMEEAP] [HFPS]) [mM] |
| --- | --- | --- | --- | --- | --- | --- | --- |
| CC1CCC(=O)N1CC[N+](C)(C)CCO.O=S(=O)([N-]S(=O)(=O)C(F)(F)F)C(F)(F)F (stereo not shown) [Example 8, 1-(N,N,N-dimethyl(hydroxyethyl)aminoethyl)-5-methyl pyrrolidone-2-one bis(trifluoromethane)sulfonamide] | 417 | 89.3 |  |  |  |  |  |
| COCC[N+](C)(C)CCN1C(=O)CCC1C.O=S(=O)([N-]S(=O)(=O)C(F)(F)F)C(F)(F)F (stereo not shown) [Example 7, 1-(N,N,N-dimethyl(methylethoxy)aminoethyl)-5-methyl pyrrolidone-2-one bis(trifluoromethane)sulfonamide] | 389 | 100 | 643 |  |  |  |  |
| CCOCC[N+](C)(C)CCN1C(=O)CCC1C (stereo not shown) [Example 3, 1-(N,N,N-dimethyl(ethylethoxy)aminoethyl)-5-methyl-pyrrolidine-2-one bis(trifluoromethane)sulfonamide] |  | 80.4 |  | 398 | 637 |  |  |
| CCC[N+](C)(C)CCN1C(=O)CCC1C.O=S(=O)([N-]S(=O)(=O)C(F)(F)F)C(F)(F)F (stereo not shown) [Example 6, 1-(N,N,N-dimethylpropylaminoethyl)-5-methyl pyrrolidone-2-one bis(trifluoromethane)sulfonamide] | 387 | 100 |  |  |  |  |  |
| COCC[N+](C)(C)CCN1C(=O)CCC1C (stereo not shown) [Example 4, 1-(N,N,N-dimethyl(methylethoxy)aminoethyl)-5-methylpyrrolidin-2-one hexafluoropropanesulfonate] | 423 | 21.9 | 645 |  |  |  |  |
| CCOCC[N+](C)(C)CCN1C(=O)CCC1C (stereo not shown) [Example 2, 1-(N,N,N-dimethyl(ethylethoxy)aminoethyl)-5-methyl-pyrrolidine-2-one hexafluoropropanesulfonate] |  | 34.0 |  |  |  | 422 | 656 |
